{
  "source": "ChEMBL document CHEMBL3244335",
  "about": "(J Med Chem, 1977)",
  "key": {"[1]": {"target": "Histamine H2 receptor (Cavia porcellus) (UniProt P47747)", "sequence (P47747 whole entry)": "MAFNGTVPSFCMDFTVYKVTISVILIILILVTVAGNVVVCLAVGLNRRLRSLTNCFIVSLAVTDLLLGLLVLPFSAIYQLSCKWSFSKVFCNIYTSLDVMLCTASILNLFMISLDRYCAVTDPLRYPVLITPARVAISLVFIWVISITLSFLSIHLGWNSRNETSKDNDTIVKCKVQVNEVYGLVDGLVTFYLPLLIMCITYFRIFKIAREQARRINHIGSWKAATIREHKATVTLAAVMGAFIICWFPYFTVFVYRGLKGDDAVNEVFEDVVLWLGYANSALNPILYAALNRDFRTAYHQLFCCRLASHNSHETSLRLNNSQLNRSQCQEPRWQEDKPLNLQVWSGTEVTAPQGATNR", "test": "Antagonist at histamine H2 receptor in guinea pig atrium assessed as inhibition of histamine-induced response", "conditions": "Cardiac atrium"}, "[2]": {"target": "Histamine H2 receptor (Rattus norvegicus) (UniProt P25102)", "sequence (P25102 whole entry)": "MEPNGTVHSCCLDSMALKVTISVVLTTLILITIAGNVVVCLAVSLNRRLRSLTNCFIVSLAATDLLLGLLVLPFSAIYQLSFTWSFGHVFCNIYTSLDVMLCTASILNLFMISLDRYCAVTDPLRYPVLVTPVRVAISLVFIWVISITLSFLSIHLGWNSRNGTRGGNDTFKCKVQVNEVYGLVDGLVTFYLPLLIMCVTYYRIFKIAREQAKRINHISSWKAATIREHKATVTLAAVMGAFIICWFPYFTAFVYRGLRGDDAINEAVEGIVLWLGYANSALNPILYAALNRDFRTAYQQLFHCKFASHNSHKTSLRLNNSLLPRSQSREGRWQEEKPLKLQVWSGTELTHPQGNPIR", "test": "Antagonist at histamine H2 receptor in rat uterus assessed as inhibition of histamine-induced response", "format": "tissue-based"}, "[3]": {"test": "Octanol-water partition coefficient, log P of the compound at 37 degC", "format": "physicochemical"}, "[4]": {"test": "Ionization constant, pKa of the imidazole ring of the compound", "format": "physicochemical"}, "[5]": {"test": "Octanol-water partition coefficient, log P of the compound at pH 9.2", "format": "physicochemical"}, "[6]": {"test": "Solubility of the compound in water at 37 degC", "format": "physicochemical", "conditions": "buffer"}, "[7]": {"test": "Ionization constant, pKa of the compound", "format": "physicochemical"}, "[8]": {"test": "Octanol-water partition coefficient, P of the compound at 37 degC"}},
  "data": [
    {"smiles": "CN/C(=N\\C#N)NCCCCc1c[nH]cn1", "values": [
      {"measurement": "Kb", "setting": "[1]", "value": 8.3, "unit": "µM"},
      {"measurement": "Kb", "setting": "[2]", "value": 7.1, "unit": "µM"}
    ]},
    {"smiles": "CNC(=S)NC", "values": [
      {"measurement": "logP", "setting": "[3]", "value": -0.237}
    ]},
    {"smiles": "C/N=C(\\S)NCCSCc1[nH]cnc1C", "note": "[METIAMIDE]", "values": [
      {"measurement": "pKa", "setting": "[4]", "value": 6.8},
      {"measurement": "logP", "setting": "[5]; read-out: logP (converted)", "value": 0.505},
      {"measurement": "solubility", "setting": "[6]", "value": 0.32, "unit": "%"}
    ]},
    {"smiles": "NC(N)=S", "note": "[THIOUREA]", "values": [
      {"measurement": "pKa", "setting": "[7]", "value": -1.2},
      {"measurement": "P", "setting": "[8]", "value": 0.09}
    ]},
    {"smiles": "CNC(=NC#N)NC", "values": [
      {"measurement": "logP", "setting": "[3]", "value": -0.398}
    ]},
    {"smiles": "CNC(=S)NCCCCc1nc[nH]c1C", "values": [
      {"measurement": "Kb", "setting": "[1]", "value": 8.9, "unit": "µM"},
      {"measurement": "Kb", "setting": "[2]", "value": 10.7, "unit": "µM"}
    ]},
    {"smiles": "CNC(=O)NCCSCc1[nH]cnc1C", "values": [
      {"measurement": "Kb", "setting": "[1]", "value": 22, "unit": "µM"},
      {"measurement": "Kb", "setting": "[2]", "value": 7.1, "unit": "µM"}
    ]},
    {"smiles": "CNC(=S)NCCSCc1c[nH]cn1", "values": [
      {"measurement": "Kb", "setting": "[1]", "value": 3.2, "unit": "µM"},
      {"measurement": "Kb", "setting": "[2]", "value": 3.2, "unit": "µM"}
    ]},
    {"smiles": "CN/C(=N/CCSCc1nc[nH]c1C)NC#N", "note": "[CIMETIDINE]", "values": [
      {"measurement": "logP", "setting": "[5]", "value": 2.5},
      {"measurement": "solubility", "setting": "[6]", "value": 1.14, "unit": "%"}
    ]},
    {"smiles": "CN/C(=N\\C#N)NCCSCc1c[nH]cn1", "values": [
      {"measurement": "Kb", "setting": "[1]", "value": 1.4, "unit": "µM"},
      {"measurement": "Kb", "setting": "[2]", "value": 1.6, "unit": "µM"}
    ]},
    {"smiles": "N#CNC(=N)N", "values": [
      {"measurement": "pKa", "setting": "[7]", "value": -0.4},
      {"measurement": "logP", "setting": "[3]", "value": -1.16}
    ]},
    {"smiles": "CN/C(=N/C#N)NCCCCc1nc[nH]c1C", "values": [
      {"measurement": "Kb", "setting": "[1]", "value": 8.1, "unit": "µM"},
      {"measurement": "Kb", "setting": "[2]", "value": 4.9, "unit": "µM"}
    ]},
    {"smiles": "C/N=C(\\S)NCCCCc1c[nH]cn1", "values": [
      {"measurement": "Kb", "setting": "[1]", "value": 7.8, "unit": "µM"},
      {"measurement": "Kb", "setting": "[2]", "value": 6.6, "unit": "µM"}
    ]},
    {"smiles": "CN/C(=N\\C(N)=O)NCCSCc1nc[nH]c1C", "values": [
      {"measurement": "Kb", "setting": "[1]", "value": 7.1, "unit": "µM"},
      {"measurement": "Kb", "setting": "[2]", "value": 6.9, "unit": "µM"}
    ]},
    {"smiles": "CNC(=S)NCCSCc1[nH]cnc1C", "values": [
      {"measurement": "Kb", "setting": "[1]", "value": 0.92, "unit": "µM"},
      {"measurement": "Kb", "setting": "[2]", "value": 0.75, "unit": "µM"}
    ]},
    {"smiles": "N=C(N)N", "note": "[GUANIDINE]", "values": [
      {"measurement": "pKa", "setting": "[7]", "value": 13.6}
    ]},
    {"smiles": "CNC(=N)NCCSCc1nc[nH]c1C", "values": [
      {"measurement": "Kb", "setting": "[1]", "value": 16, "unit": "µM"},
      {"measurement": "Kb", "setting": "[2]", "value": 5.5, "unit": "µM"}
    ]},
    {"smiles": "C/N=C(/NCCSCc1[nH]cnc1C)N[N+](=O)[O-]", "values": [
      {"measurement": "Kb", "setting": "[1]", "value": 1.4, "unit": "µM"},
      {"measurement": "Kb", "setting": "[2]", "value": 1.4, "unit": "µM"}
    ]},
    {"smiles": "CN/C(=N\\CCSCc1nc[nH]c1C)NC#N", "values": [
      {"measurement": "Kb", "setting": "[2]", "value": 0.81, "unit": "µM"}
    ]}
  ]
}
